Laboratory results from US20190316211A1, “ONCOGENIC ALTERNATIVE SPLICING SWITCH OF PACE4 IN CANCER” (SOCIETE DE COMMERCIALISATION DES PRODUITS DE LA RECHERCHE …, priority 2016, published 2019).

Columns and labels:
PACE4 secretion = PACE4 secretion assay with post-translational modification inhibitors; type: cell-based; conditions: 24 h secretion in presence of agent
Text: Immunoprecipitations on transiently transfected HEK293-FT cells were subjected to Sequential Window Acquisition of all Theoretical Mass Spectra (SWATH-MS)-based analysis (FIGS. 7F and G). Proteins identified in each pull-down were used to compare enrichment between the two different isoforms. Both isoforms pulled-down endoplasmic reticulum (ER) proteins with similar enrichment. The two isoforms had clearly different patterns when it came to endosomal compartments-associated proteins such as Arf6, Rab13 or Vps16 with PACE4-altCT pull-down displaying the higher enriched levels for these proteins. […] Considering the slight substitution caused by the splicing in the protein primary structure (FIG. 7A), PTM prediction tools were used to evaluate whether distinctive PTM motifs could be found in the alternative C-terminus compared to the FL one. The predicted PTM sites that scored the highest were S-palmitoylation, non-consensual S-farnesylation and S-geranylgeranylation on the Cys cluster added at the C-terminal extremity of the protein ([…]; see FIG. 8A).
For PACE4 secretion assays, cells were plated at equal densities in 6-well plates for 24 h in complete medium. 24 h later, the medium was replaced by the minimal volume required of fresh culture medium (600 μL without FBS) and the cells were either allowed to secrete for the indicated time (for secretion kinetics) or (for inhibitor treatments) allowed to secrete for an additional 24 h in the presence of the indicated concentrations of agents (heparin (Sandoz, Niirnberg, Germany), 2-bromopalmitate (Sigma Aldrich), FTI-277 (Sigma Aldrich), GGTI-2133 (Santa Cruz Biotechnology Inc., Santa Cruz, Calif., USA)

IGF1R = assay: Western blot of PC substrate processing in inhibitor-treated DU145 and LNCaP lines; type: cell-based; conditions: 50 μM, 48 h
Protocol: (§1) Western blotting were carried out of (i) cell lines silenced with shPACE4, shfurin and shPC7, (ii) cell lines stably expressing PACE4-FL and PACE4-altCT and (iii) cell lines treated with either the non-selective and irreversible PC inhibitor decanoyl-RVKR-chloromethylketone (CMK) or the PACE4 high affinity peptide inhibitor [dLeu]LLLRVK-amidinobenzylamide (Amba; dL-ML-Amba), herein after called C23 (Levesque et al., 2015, Oncotarget, 6: 3680-3693). In order to test the western blot arrays, known PC substrates were chosen, namely, the insulin-like growth factor 1 receptor (IGF1R) and integrin alpha-6 (ITGA6); two well-accepted furin substrates, were evaluated (FIGS. 10A and B) and E-cadherin. […] In contrast, the overexpression of PACE4-FL and PACE4-altCT did increase the processing of IGF1R and ITGA6 pro-forms, highlighting the cautionary interpretation that are needed in overexpression studies.
(§2) For substrates analysis, cell lysates were prepared by plating equal number of cells in p100 mm plates in complete medium. 24 h later, medium was replaced by 6 mL of serum-free fresh medium (with treatment if indicated; 50 μM of dL-ML-Amba or dec-RVKR-CMK (Bachem, Torrance, Calif.) and cells were further incubated 48 h. Medium was then collected and centrifuged at 1,000×g for 10 min at room temperature to remove any floating cells, aliquot of medium were then taken (800 μL), flash-frozen in liquid nitrogen, lyophilized overnight, restituted in 100 μL of Laemmli buffer: 8M urea (1:1) and boiled for 5 min until complete resuspension. 25 μL of concentrated medium were loaded on SDS-PAGE (equivalent of 200 μL of culture medium). Cells were carefully washed with PBS and lysed from cell pellet (resulting from 1,000×g centrifugation) using radio-immunoprecipitation assay buffer (RIPA) as described in (Couture et al., 2012). Samples were incubated 20 min on ice and further centrifuged 30 min at 13.000 rpm at 4° C. Protein concentration was determined by bicinchoninic acid assay (Pierce) to load 15 μg on polyacrylamide gels. […] was used as a loading control, for conditioned media, a Coomassie blue staining was routinely performed to control for protein loading.

ITGA6 = assay: as above; type: cell-based; conditions: 50 μM, 48 h
Protocol: as §1, §2

GDF-15 in LNCaP cells = assay: GDF-15 cleavage and secretion analysis (western blot, ELISA); type: cell-based; conditions: treated LNCaP cells, western blot array and ELISA
Text: FIG. 10 illustrates the identification and validation of GDF-15 as a PACE4-specific substrate in prostate cancer cells, showing in (A) Western blots of candidate PC substrates across the knockdown, overexpressing and inhibitor-treated DU145 and LNCaP (B) lines; (C) expression of GDF-15 in DU145 and LNCaP cells showing that mature GDF-15 is secreted in the medium; (D) GDF-15 concentrations in DU145 and LNCaP conditioned medium determined by ELISA; (E) GDF-15 cleavage analysis in the LNCaP cells panel; (F) GDF-15 concentrations in the conditioned medium determined by ELISA; (G) GDF-15 cleavage analysis in LNCaP treated with either the ML-peptide or the cell impermeable analog (PEG8-ML); (H) GDF-15 spanning peptide cleavage by PACE4 and furin monitored by HPLC, cleavage site is underlined in the spanning peptide sequence, peptide identity was confirmed by MALDI-TOF upon collection of associated fractions; (I) Western blot analysis of paired adjacent non-cancerous tissues (ANCT) and prostate tissues (PCa); and (J) a blot showing various cancer grades is shown together with the densitometric analysis of 21 tissues pairs (n=6 (3+3), 7 (3+4), 6 (4+3), 2 (5+X) X being 3 and 4).
GDF-15 is known to supports both the proliferation and clonogenic potential of LNCaP cells, which is also in line with the observed phenotypes for both PACE4 knockdown and overexpressing cells. […]

[1] = target: growth differentiation factor 15 (human) (UniProt Q99988); assay: cell-based or functional assay
growth differentiation factor 15 (human), sequence (Q99988 195-308): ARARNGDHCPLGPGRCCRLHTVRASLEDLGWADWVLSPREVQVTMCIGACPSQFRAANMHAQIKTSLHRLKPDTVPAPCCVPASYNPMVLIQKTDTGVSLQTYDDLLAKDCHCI

[2] = target: Multi-Leucine (ML) peptide

For CCCCCCCCCCCCCCC(Br)C(=O)O (stereo not drawn) [2-BP, 2-bromopalmitate], the “variation in secretion levels” value (PACE4 secretion) was “without any significant variation”.

For [dLeu]LLLRVK-amidinobenzylamide [C23], the “processing of IGF1R pro-form” value (IGF1R) was “no effect”, the “processing of ITGA6 pro-form” value (ITGA6) was “no effect” and the “GDF-15 observed in the medium” value (GDF-15 in LNCaP cells) was “virtually no pro-GDF-15 could be observed”.

In the case of CC(C)C[C@H](NC(=O)c1ccc(NCc2cnc[nH]2)cc1-c1cccc2ccccc12)C(=O)O [GGTI-2133], the “variation in secretion levels” value (PACE4 secretion) is reported as “without any significant variation”.

With “PACE4-FL (from UniProt P29122 150-969) (enzyme)” the amount of secreted GDF-15 in conditioned medium (ELISA) (times higher than pLenti6 control cells) [1] was 5.

COC(=O)[C@H](CCSC)NC(=O)c1ccc(NC[C@@H](N)CS)cc1-c1ccccc1 [FTI-277] was tested, and the “variation in secretion levels” value (PACE4 secretion) was “without any significant variation”.

With decanoyl-RVKR-chloromethylketone [CMK] the “processing of IGF1R pro-form” value (IGF1R) was “prevented the processing”, the “processing of ITGA6 pro-form” value (ITGA6) was “prevented the processing” and the “GDF-15 observed in the medium” value (GDF-15 in LNCaP cells) was “virtually no pro-GDF-15 could be observed”.

B1: V5-tagged PACE4-FL (protein)
chain: QVRSDPQALYFNDPIWSNMWYLHCGDKNSRCRSEMNVQAAWKRGYTGKNVVVTILDDGIERNHPDLAPNYDSYASYDVNGNDYDPSPRYDASNENKHGTRCAGEVAASANNSYCIVGIAYNAKIGGIRMLDGDVTDVVEAKSLGIRPNYIDIYSASWGPDDDGKTVDGPGRLAKQAFEYGIKKGRQGLGSIFVWASGNGGREGDYCSCDGYTNSIYTISVSSATENGYKPWYLEECASTLATTYSSGAFYERKIVTTDLRQRCTDGHTGTSVSAPMVAGIIALALEANSQLTWRDVQHLLVKTSRPAHLKASDWKVNGAGHKVSHFYGFGLVDAEALVVEAKKWTAVPSQHMCVAASDKRPRSIPLVQVLRTTALTSACAEHSDQRVVYLEHVVVRTSISHPRRGDLQIYLVSPSGTKSQLLAKRLLDLSNEGFTNWEFMTVHCWGEKAEGQWTLEIQDLPSQVRNPEKQGKLKEWSLILYGTAEHPYHTFSAHQSRSRMLELSAPELEPPKAALSPSQVEVPEDEEDYTAQSTPGSANILQTSVCHPECGDKGCDGPNADQCLNCVHFSLGSVKTSRKCVSVCPLGYFGDTAARRCRRCHKGCETCSSRAATQCLSCRRGFYHHQEMNTCVTLCPAGFYADESQKNCLKCHPSCKKCVDEPEKCTVCKEGFSLARGSCIPDCEPGTYFDSELIRCGECHHTCGTCVGPGREECIHCAKNFHFHDWKCVPACGEGFYPEEMPGLPHKVCRRCDENCLSCAGSSRNCSRCKTGFTQLGTSCITNHTCSNADETFCEMVKSNRLCERKLFIQFCCRTCLLAG
For B1, the “enzymatic activity (cleavage of the fluorogenic substrate Pyr-Arg-Thr-Lys-Arg-methylcoumaryl-7-amide)” value [2] was “both isoforms were still equally inhibited by the Multi-Leucine (ML) peptide”.

B2: V5-tagged PACE4-altCT (protein)
chain: QVRSDPQALYFNDPIWSNMWYLHCGDKNSRCRSEMNVQAAWKRGYTGKNVVVTILDDGIERNHPDLAPNYDSYASYDVNGNDYDPSPRYDASNENKHGTRCAGEVAASANNSYCIVGIAYNAKIGGIRMLDGDVTDVVEAKSLGIRPNYIDIYSASWGPDDDGKTVDGPGRLAKQAFEYGIKKGRQGLGSIFVWASGNGGREGDYCSCDGYTNSIYTISVSSATENGYKPWYLEECASTLATTYSSGAFYERKIVTTDLRQRCTDGHTGTSVSAPMVAGIIALALEANSQLTWRDVQHLLVKTSRPAHLKASDWKVNGAGHKVSHFYGFGLVDAEALVVEAKKWTAVPSQHMCVAASDKRPRSIPLVQVLRTTALTSACAEHSDQRVVYLEHVVVRTSISHPRRGDLQIYLVSPSGTKSQLLAKRLLDLSNEGFTNWEFMTVHCWGEKAEGQWTLEIQDLPSQVRNPEKQGKLKEWSLILYGTAEHPYHTFSAHQSRSRMLELSAPELEPPKAALSPSQVEVPEDEEDYTAQSTPGSANILQTSVCHPECGDKGCDGPNADQCLNCVHFSLGSVKTSRKCVSVCPLGYFGDTAARRCRRCHKGCETCSSRAATQCLSCRRGFYHHQEMNTCVTLCPAGFYADESQKNCLKCHPSCKKCVDEPEKCTVCKEGFSLARGSCIPDCEPGTYFDSELIRCGECHHTCGTCVGPGREECIHCAKNFHFHDWKCVPACGEGFYPEEMPGLPHKVCRRCDENCLSCAGSSRNCSRCKTGFTQLGTSCITNHTCSNGDIWQRLETFWVVTTGRMYSHPVGGGQECC
B2 was tested, and the “enzymatic activity (cleavage of the fluorogenic substrate Pyr-Arg-Thr-Lys-Arg-methylcoumaryl-7-amide)” value [2] was “both isoforms were still equally inhibited by the Multi-Leucine (ML) peptide”.
